According to patent publication US20250268884A1, “Deuterated Domperidone for Treating Gastroparesis” (CinDome Pharma, Inc., priority 2022, published 2025):

Assays:
clinical = conditions: human, plasma, oral
Method: The following PK parameters were calculated for deuterated domperidone from plasma concentrations (Day 1) using a noncompartmental method, if the data permitted: • Cmax determined directly from the concentration-time profile.
[formula] • λz calculated from a semi-logarithmic plot of the plasma concentration versus time curve. The parameter was calculated by linear least-squares regression analysis using points in the terminal logarithmic-linear phase; • T½ calculated as natural logarithm (2)/λz; • CL/F calculated as Dose/AUC0-∞; • Vz/F calculated as Dose/(λz×AUC0-∞); • Rcmax calculated as Cmax on Day 14/Cmax on Day 1; and • RAUC calculated as AUCtau on Day 14/AUCtau on Day 1.

[1] = test system: adults with idiopathic or diabetic gastroparesis; conditions: 10 mg BID, Cohort 1, ITT
Source text: Gastric emptying may be measured by the gastric emptying breath test (GEBT). The GEBT is known in the art. Succinctly, the GEBT is a nonradioactive stable isotope breath test used in the art to diagnose or monitor gastroparesis. In this test, the ratio of exhaled ^13CO2/^12CO2 is used to determine the rate of gastric emptying after consumption of a standardized, ^13C-enriched meal. In some embodiments, the ^13C-enriched meal is ^13C-Spirulina platensis. In some examples, the test includes consumption of a standardized, ^13C-enriched meal after an 8-hour fast. See, e.g., the Cairn Gastric Emptying Breath Test (GEBT) Administration Guide at https://cairndiagnostics.com/wp-content/uploads/2019/05/Cairn-GEBT-How-To-Guide-updated-07May2019.pdf, which is hereby incorporated by reference. Breath samples are obtained one or more times prior to consumption of the ^13C-enriched meal and then one or more times after meal consumption. The breath samples are then measured using, e.g., a gas isotope ratio mass spectrometer. […]
Subjects were Evaluated as Follows: • Days −28 to −11: Screening procedures were performed. The ANMS GCSI-DD questionnaire was completed daily for at least 14 days prior to randomization (Day 1); • Days −10 to −3: The ANMS GCSI-DD questionnaire was completed daily. A GEBT was performed on a single day within this window, with breath samples obtained twice prior to consumption of a standardized, carbon-13 (^13C)-enriched meal and then at 45, 90, 120, 150, 180, and 240 minutes after meal consumption after an 8-hour fast. […] On Day 14 (±2 days), the PAGI-SYM and Clinical Grading Assessment questionnaires were completed prior to the final dose of study drug. • A GEBT was administered 30 minutes after study drug administration on Day 14 (±2 days). Breath samples were obtained twice prior to ^13C-enriched meal consumption and then at 45, 90, 120, 150, 180, and 240 minutes after meal consumption after an 8-hour fast. […] Clinical Grading Assessment Scales were also performed.
The primary efficacy variable was the change from baseline in gastric emptying as measured by GEBT at Day 14.
The secondary efficacy variables were the following: • The change from baseline in gastric emptying as measured by GEBT T½ at Day 14; • The change from baseline in ANMS GCSI-DD total scores; and • The change from baseline in ANMS GCSI-DD subscale scores.

SMILES: [2H]c1c([2H])c([2H])c2c([nH]c(=O)n2CCCN2CCC(n3c(=O)[nH]c4cc(Cl)ccc43)CC2)c1[2H] [Deudomperidone, 1-{3-[4-(5-chloro-2-oxo-2,3-dihydro-1H-1,3-benzodiazol-1-yl)piperidin-1yl]propyl}-2,3-dihydro(4,5,6,7-D4)-1H-1,3-benzodiazol-2-one]
- Tmax (clinical; 5 mg, Tmax, Day 1 (single dose), 5 mg BID, median, plasma deuterated domperidone): 2 h
- Tmax (clinical; 5 mg, Tmax, Day 14 (steady state), 5 mg BID, median, plasma deuterated domperidone): 2 h
- Tmax (clinical; 10 mg, Tmax, Day 1 (single dose), 10 mg BID, median, plasma deuterated domperidone): 2 h
- Tmax (clinical; 10 mg, Tmax, Day 14 (steady state), 10 mg BID, median, plasma deuterated domperidone): 2 h
- Tmax (clinical; 20 mg, Tmax, Day 1 (single dose), 20 mg QD, median, plasma deuterated domperidone): 2.5 h
- Tmax (clinical; 20 mg, Tmax, Day 14 (steady state), 20 mg QD, median, plasma deuterated domperidone): 2 h
- Tmax (clinical; median Tmax, across dose groups (5 mg BID, 10 mg BID, 20 mg QD), patients with gastroparesis): 2 to 2.5 h
- GEBT 45 minutes post meal consumption, Day 14, mean [1]: 10.74 kPCD
- GEBT 45 minutes post meal consumption, change from baseline to Day 14 [1]: 1.96 kPCD
- GEBT 45 minutes post meal consumption, percent change from baseline to Day 14 [1]: 89.31%
- GEBT 90 minutes post meal consumption, Day 14, mean [1]: 23.60 kPCD
- GEBT 90 minutes post meal consumption, change from baseline to Day 14 [1]: 3.37 kPCD
- GEBT 90 minutes post meal consumption, percent change from baseline to Day 14 [1]: 56.73%
- GEBT 120 minutes post meal consumption, Day 14, mean [1]: 32.68 kPCD
- GEBT 120 minutes post meal consumption, change from baseline to Day 14 [1]: 3.86 kPCD
- GEBT 120 minutes post meal consumption, percent change from baseline to Day 14 [1]: 40.17%
- GEBT 150 minutes post meal consumption, Day 14, mean [1]: 37.13 kPCD
- GEBT 150 minutes post meal consumption, change from baseline to Day 14 [1]: 1.25 kPCD
- GEBT 150 minutes post meal consumption, percent change from baseline to Day 14 [1]: 23.46%
- GEBT 180 minutes post meal consumption, Day 14, mean [1]: 40.96 kPCD
- GEBT 180 minutes post meal consumption, change from baseline to Day 14 [1]: 1.85 kPCD
- GEBT 180 minutes post meal consumption, percent change from baseline to Day 14 [1]: 20.31%
- GEBT 240 minutes post meal consumption, Day 14, mean [1]: 41.41 kPCD
- GEBT 240 minutes post meal consumption, change from baseline to Day 14 [1]: −0.79 kPCD
- GEBT 240 minutes post meal consumption, percent change from baseline to Day 14 [1]: 9.46%
